Data set [1] relates to SH-SY5Y cells. Nature of the data set: Cell proliferation (anti-proliferation) assay, MTS. The format is cell-based, human. On the procedure: SH-SY5Y cells were grown in DMEM with L-glutamin supplemented with streptomycin ([…]), penicillin (100 units/mL), and 10% fetal bovine serum (FBS). Cells were grown to confluence in a humidified atmosphere (37 °C, 5% CO2).
SH-SY5Y cells (1.5 × 10^3 cells/well) were seeded in a clear 96-well plate, the medium volume was brought to 100 µL, and the cells were allowed to attach overnight. The next day, various concentrations of compounds or DMSO were added to the wells. Cells were then incubated at 37 °C for 24, 48 and 72 h. Cell viability was determined using the Promega Cell Titer 96 Aqueous One Solution cell proliferation assay. Absorbance at 490 nm was read on Tecan Infinite F200 Pro plate reader, and values were expressed as percent of absorbance from cells incubated in DMSO alone.

A short description of a further data set: PAMPA-BBB assay. The format is in vitro ADME. Here is the method: BBB-PAMPA was conducted by manufacturer’s instruction (pION Inc, MA, USA). […] Transmembrane side to donor part was coated with BBB lipid solution and add 200 μL acceptor buffer in upper part of PAMPA sandwich plate.
A general note: In PAMPA a lipid-coated filter parts donor from acceptor wells.

Data set [2] in a line: In vivo brain pharmacokinetic study. The conditions noted are these: ICR male mice, IV, 2 mg/kg. Here is the method: The study was approved by the Institutional Animal Care and Use of Committee of Daegu-Gyeongbuk Medical Innovation Foundation (DGMIF) and performed in accordance with protocols approved by the Institutional Animal Care and Use of Committee. […] Brain and plasma samples were collected at 0.5 and 1 h time points. Brain samples were homogenized at a 1:4 ratio of sample weight (g) to PBS volume (mL). Aliquots (20 μL) of brain homogenate were mixed with 180 μL of acetonitrile, vortexed and centrifuged at 15,000 rpm for 5 minutes at 4 °C. The resulting supernatants were used for LC-MS/MS analysis. Mice plasma samples were collected at 0.5 and 1 h time points. 180 μL of acetonitrile was added to 20 μL of plasma samples, vortexed and centrifuged at 15,000 rpm for 5 minutes at 4 °C.

In the next data set the target is T1, HDAC1 (Homo sapiens, UniProt Q13547).
T1 construct: purchased BPS Biosciences
T1 sequence (Q13547 whole entry): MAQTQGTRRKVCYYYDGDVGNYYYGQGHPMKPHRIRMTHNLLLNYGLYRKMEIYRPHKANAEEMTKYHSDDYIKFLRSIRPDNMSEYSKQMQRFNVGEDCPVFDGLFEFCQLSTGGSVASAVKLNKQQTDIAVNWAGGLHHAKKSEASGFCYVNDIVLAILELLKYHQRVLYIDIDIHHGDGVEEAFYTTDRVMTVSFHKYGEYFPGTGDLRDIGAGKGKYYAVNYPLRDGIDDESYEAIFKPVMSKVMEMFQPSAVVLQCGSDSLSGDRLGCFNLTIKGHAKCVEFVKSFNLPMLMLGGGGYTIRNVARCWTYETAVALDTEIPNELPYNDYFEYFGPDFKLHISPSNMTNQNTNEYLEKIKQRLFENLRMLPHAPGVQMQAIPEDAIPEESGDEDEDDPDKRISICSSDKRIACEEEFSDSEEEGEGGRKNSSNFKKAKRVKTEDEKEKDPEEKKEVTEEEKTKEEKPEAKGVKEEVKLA
Nature of the data set: HDAC activity assay (fluorimetric, BPS Biosciences). The class given is biochemical. To be noted: class I; mean ± SD (n = 2). On the procedure:
(§1) HDAC1, 3, 6 and 7 activity assays were performed according to the manufacturer’s protocol (BPS Biosciences). […] The HDAC assay developer was added to the mixture and incubated the plate at rt for 15 min. The fluorescence intensity was measured using a Tecan Infinite F200 Pro plate reader.

For another data set, the target named is T2, HDAC3 (Homo sapiens, UniProt O15379).
T2 construct: purchased BPS Biosciences
T2 sequence (O15379 whole entry): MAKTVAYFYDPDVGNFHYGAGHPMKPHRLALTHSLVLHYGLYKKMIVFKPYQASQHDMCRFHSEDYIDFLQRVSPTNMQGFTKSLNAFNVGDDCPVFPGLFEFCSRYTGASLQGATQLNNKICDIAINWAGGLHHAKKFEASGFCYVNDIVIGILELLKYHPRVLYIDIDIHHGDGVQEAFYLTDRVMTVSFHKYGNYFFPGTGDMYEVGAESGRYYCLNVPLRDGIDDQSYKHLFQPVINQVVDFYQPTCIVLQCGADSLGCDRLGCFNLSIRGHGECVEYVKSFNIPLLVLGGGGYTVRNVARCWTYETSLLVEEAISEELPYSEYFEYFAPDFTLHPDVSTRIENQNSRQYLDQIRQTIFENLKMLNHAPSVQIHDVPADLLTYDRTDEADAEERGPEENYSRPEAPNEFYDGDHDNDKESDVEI
T2 sequence (Q9Y618 395-489 partner limits assumed): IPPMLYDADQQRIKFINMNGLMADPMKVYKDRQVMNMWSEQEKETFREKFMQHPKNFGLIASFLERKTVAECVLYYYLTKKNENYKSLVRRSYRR
Described as above. The format is biochemical. The conditions noted are these: class I; mean ± SD (n = 2). Here is the method:
as §1

A further data set deals with T3, HDAC7 (Homo sapiens, UniProt Q8WUI4).
T3 construct: purchased BPS Biosciences
T3 sequence (Q8WUI4 1-952): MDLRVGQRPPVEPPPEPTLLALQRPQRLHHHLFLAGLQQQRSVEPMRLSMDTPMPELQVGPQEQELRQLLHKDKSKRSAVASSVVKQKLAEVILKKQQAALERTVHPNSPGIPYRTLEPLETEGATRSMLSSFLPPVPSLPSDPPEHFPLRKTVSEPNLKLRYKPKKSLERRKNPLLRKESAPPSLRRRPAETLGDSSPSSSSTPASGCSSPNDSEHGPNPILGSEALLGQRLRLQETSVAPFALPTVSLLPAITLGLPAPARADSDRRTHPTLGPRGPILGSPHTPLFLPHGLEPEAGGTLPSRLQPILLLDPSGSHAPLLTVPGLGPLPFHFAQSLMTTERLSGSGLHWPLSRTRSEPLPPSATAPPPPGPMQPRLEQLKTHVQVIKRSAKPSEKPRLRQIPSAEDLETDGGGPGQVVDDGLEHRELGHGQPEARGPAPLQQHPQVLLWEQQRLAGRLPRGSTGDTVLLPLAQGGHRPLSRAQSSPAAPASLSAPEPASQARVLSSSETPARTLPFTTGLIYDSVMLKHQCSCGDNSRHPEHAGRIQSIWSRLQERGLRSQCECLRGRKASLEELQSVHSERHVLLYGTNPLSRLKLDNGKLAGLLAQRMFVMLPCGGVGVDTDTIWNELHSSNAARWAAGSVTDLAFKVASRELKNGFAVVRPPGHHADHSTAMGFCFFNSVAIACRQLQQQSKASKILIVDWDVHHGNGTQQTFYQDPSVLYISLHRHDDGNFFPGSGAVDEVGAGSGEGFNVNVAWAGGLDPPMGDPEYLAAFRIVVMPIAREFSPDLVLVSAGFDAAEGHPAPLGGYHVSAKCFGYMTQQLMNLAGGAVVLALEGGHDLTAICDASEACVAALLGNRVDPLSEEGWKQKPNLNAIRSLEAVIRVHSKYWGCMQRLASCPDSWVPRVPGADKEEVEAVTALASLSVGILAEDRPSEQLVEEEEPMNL
The data set is described as above. The format is biochemical. To be noted: class IIa in Table 4; mean ± SD (n = 2). On the procedure: as §1

A further data set deals with Ac-Histone H3. Nature of the data set: Western blot of acetylation status in SH-SY5Y cells. The format is cell-based, human. The conditions noted are these: 24 h, 0.5 to 5 μM. Here is the method:
(§2) Cells were seeded in 100 mm culture dishes (1 × 10^6 cells/dish), and allowed to attach overnight. Inhibitors were added at the concentrations as indicated and the cells were incubated for an additional 24 hours. For comparison, cells were also incubated with DMSO (0.5%) for 24 hours. Cells were harvested in ice-cold lysis buffer (23 mM Tris-HCl pH 7.6, 130 mM NaCl, 1% NP-40, 1% sodium deoxycholate, 0.1% SDS), and 30 µg of lysate per lane was separated by SDS-PAGE and followed by transferring to a PVDF membrane (Bio-Rad). The membrane was blocked with 5% skim milk in TBST, and then incubated with the corresponding antibody (Ac-α-tubulin, α-tubulin, Ac-Histone H3, Histone H3 or β-actin). After binding of an appropriate secondary antibody coupled to horseradish peroxidase, proteins were visualized by ECL chemiluminescence according to the instructions of the manufacturer (GE healthcare, USA).
A general note: Immunoblotting shows a protein as a band on a membrane.

The test system of a further data set is Ac-α-tubulin. Described as above. The conditions noted are these: 24 h, 0.5 to 5 μM. The class given is cell-based, human. Here is the method: as §2
For data set [3], the system named is SH-SY5Y cells. Nature of the data set: Soft agar colony formation assay. The class given is cell-based, human. The conditions noted are these: 3 weeks, 3 μM. On the procedure:
Cells (10^4 cells/well) were seeded in 6 well plate with 1.2% agar. After 12 h incubation, cells were treated with the indicated concentrations of compound 9b or DMSO at 37 °C in 5% humidified CO2 for 3 weeks with continuously changing medium every week. After medium was thrown away, colonies were stained with 0.05% crystal violet for 10 min.

SMILES strings stand for the structures. “Also recorded” adds a separate entry of the source. Like-named read-outs stand apart in the source and are kept apart here.

As usually defined, the GI50 is the concentration that inhibits growth by half. Read a high GI50 as lower sensitivity of the cells. Broadly, the IC50 is the point on the concentration scale where inhibition reaches its midpoint. Take `O=C(NO)c1ccc(-c2nc3ccccc3s2)cc1` [Compound 9b]: the “SH-SY5Y cell growth impaired” value in the data set on SH-SY5Y cells [1] (5 μM, 72 hours) was around 73%. The same compound registered a GI50 in the data set with SH-SY5Y cells [1] (Homo sapiens, SH-SY5Y neuroblastoma cell line, 72 h, mean ± SD (n = 4)) of 2.01 ± 0.33 µM. The IC50 with SH-SY5Y cells [1] (Homo sapiens, SH-SY5Y, Table 1 values IC50, read-out: anti-proliferative activity IC50 against SH-SY5Y cell line) is 2010 nM; on HDAC1, 84.9 ± 25.1 nM; against HDAC3, 142 ± 45.7 nM; against HDAC7 it was 3040 nM. Moreover, in the data set “PAMPA-BBB assay” (25 μM, pH 7.4, 4 h, 25 °C, mean ± SD, three independent experiments), the “Pe (10^−6 cm/s)” value was 27.15 10^−6 cm/s. The “CNS +/− classification” value in “PAMPA-BBB assay” (PAMPA-BBB) is “CNS + (CNS + indicates (Pe > 10))”. In “PAMPA-BBB assay” (PAMPA, 25 μM, pH 7.4, 4 h, 25 °C, mean ± SD, three independent experiments, read-out: Pe), the Papp at 4 h, 25 μM was 27.1 ± 1.59 ×10⁻⁶ cm/s. The “Brain concentration (ng/mL) 0.5 h” value in data set [2] (0.5 h, n = 4) is 414.6 ± 88.7 ng/mL. In data set [2] (1 h, n = 4), the “Brain concentration (ng/mL) 1 h” value came out at 52.9 ± 1.6 ng/mL. Also, the Kp at 0.5 h in [2] (mouse, brain/plasma, 0.5 h, read-out: Brain/plasma ratio 0.5 h) is 9. The Kp at 1 h in data set [2] (mouse, brain/plasma, 1 h, read-out: Brain/plasma ratio 1 h) came to 7.2. Further, the concentration at 0.5 h in data set [2] (mouse, brain, 0.5 h, n = 4, read-out: Brain concentration (ng/mL) 0.5 h) was found to be 415 ng/mL; in data set [2] (mouse, plasma, 0.5 h, n = 4, read-out: Plasma concentration (ng/mL) 0.5 h), 46 ± 13.9 ng/mL. The concentration at 1 h in data set [2] (mouse, brain, 1 h, n = 4, read-out: Brain concentration (ng/mL) 1 h) is 52.9 ng/mL; in data set [2] (mouse, plasma, 1 h, n = 4, read-out: Plasma concentration (ng/mL) 1 h), 7.3 ± 1 ng/mL. For the same compound, in the data set with Ac-Histone H3, the “acetylation status of Histone H3” value is “more efficiently promoted the acetylation of Histone H3 and α-tubulin than compound 9a; also recorded: significantly induced the accumulation of acetylated Histone H3”. Besides, the “acetylation status of α-tubulin” value in the data set with Ac-α-tubulin was “more efficiently promoted the acetylation of Histone H3 and α-tubulin than compound 9a; also recorded: dose-dependently increased”. Moreover, the “anchorage-independent cell growth (colony formation)” value in the data set on SH-SY5Y cells [3] is “almost completely inhibited”.
